# Values quoted from earlier work in US20130289102A1, “AMYRIS ALCOHOL AND ITS ESTER FOR TREATING ACNE” (Trinity Laboratories, Inc., priority 2010, published 2013).
# How the values were obtained:
# [1] = mouse, in vivo, po
# [2] = target: presynaptic omega-agatoxin IVA-sensitive (P/Q-type) Ca^2+ channel (Rattus norvegicus, UniProt P54282)
# neurogenic inflammation = details: following electrical stimulation of rat trigeminal ganglion
# [3] = system: post-ischemic brain injury; details: focal ischemia in rats
# estrogenic activity = details: among the known phytoestrogens
# [4] = system: superoxide anion production; details: 0.33 μg/ml to 33.3 μg/ml
# human estrogen receptor = target: T1, human estrogen receptor (Homo sapiens, UniProt P03372)
# T1 sequence (P03372 1-595): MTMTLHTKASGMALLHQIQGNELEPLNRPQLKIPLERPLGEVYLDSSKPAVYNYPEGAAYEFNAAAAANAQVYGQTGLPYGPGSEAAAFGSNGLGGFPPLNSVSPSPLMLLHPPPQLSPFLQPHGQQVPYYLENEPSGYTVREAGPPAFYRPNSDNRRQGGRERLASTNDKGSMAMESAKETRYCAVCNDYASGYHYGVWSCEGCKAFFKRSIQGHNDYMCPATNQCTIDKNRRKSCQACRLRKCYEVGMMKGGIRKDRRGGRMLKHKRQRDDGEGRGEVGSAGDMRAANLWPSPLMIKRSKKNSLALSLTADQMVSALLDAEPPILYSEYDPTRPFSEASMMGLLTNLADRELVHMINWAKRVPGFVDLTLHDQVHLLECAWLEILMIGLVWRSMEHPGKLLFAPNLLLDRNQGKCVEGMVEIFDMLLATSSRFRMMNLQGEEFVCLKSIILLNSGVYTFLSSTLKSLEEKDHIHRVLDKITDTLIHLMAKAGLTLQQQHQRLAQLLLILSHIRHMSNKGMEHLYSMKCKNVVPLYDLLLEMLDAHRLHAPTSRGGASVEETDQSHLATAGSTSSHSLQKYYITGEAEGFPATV
# cyclooxygenase = details: 6.25 μg/ml, with respect to the control
# [5] = system: UVB-induced pigmented skins
# creatine kinase activity = details: rat uterus, epiphyseal cartilage, diaphyseal bone, aorta, left ventricle of the heart
# [6] = system: porcine brain microvascular endothelial cells; details: 50-100 microM
# [7] = target: T2, nicotinic ACh receptor channel (Mus musculus, UniProt P02716+P04756+P09690+P20782)
# T2 construct: the nicotinic acetylcholine receptor channel in mouse skeletal muscles; host or cells: mouse skeletal muscle
# Na^+, K(+)-ATPase = details: compared with other phosphatases examined
# [8] = system: extracellular signal-regulated kinase (ERK) 1/2; details: 100 microM
# angiogenesis = details: mice
# [9] = system: human umbilical vein endothelial cells (HUVEC)
# [10] = up to 292 mg/kg over 1 to 3 months
# T2 sequence (P04756 21-457): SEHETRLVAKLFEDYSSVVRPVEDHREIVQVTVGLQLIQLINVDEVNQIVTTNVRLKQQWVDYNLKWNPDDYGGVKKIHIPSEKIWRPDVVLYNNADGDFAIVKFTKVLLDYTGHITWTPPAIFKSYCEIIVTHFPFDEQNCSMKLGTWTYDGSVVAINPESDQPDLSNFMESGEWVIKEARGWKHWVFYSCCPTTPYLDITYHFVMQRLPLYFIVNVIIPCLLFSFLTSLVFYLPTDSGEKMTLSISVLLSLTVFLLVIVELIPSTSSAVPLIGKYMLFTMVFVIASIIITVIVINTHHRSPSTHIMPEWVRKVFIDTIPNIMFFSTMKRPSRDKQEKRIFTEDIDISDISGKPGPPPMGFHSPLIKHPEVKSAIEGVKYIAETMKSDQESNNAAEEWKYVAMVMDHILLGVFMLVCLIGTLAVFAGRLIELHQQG
# T2 sequence (P09690 24-501): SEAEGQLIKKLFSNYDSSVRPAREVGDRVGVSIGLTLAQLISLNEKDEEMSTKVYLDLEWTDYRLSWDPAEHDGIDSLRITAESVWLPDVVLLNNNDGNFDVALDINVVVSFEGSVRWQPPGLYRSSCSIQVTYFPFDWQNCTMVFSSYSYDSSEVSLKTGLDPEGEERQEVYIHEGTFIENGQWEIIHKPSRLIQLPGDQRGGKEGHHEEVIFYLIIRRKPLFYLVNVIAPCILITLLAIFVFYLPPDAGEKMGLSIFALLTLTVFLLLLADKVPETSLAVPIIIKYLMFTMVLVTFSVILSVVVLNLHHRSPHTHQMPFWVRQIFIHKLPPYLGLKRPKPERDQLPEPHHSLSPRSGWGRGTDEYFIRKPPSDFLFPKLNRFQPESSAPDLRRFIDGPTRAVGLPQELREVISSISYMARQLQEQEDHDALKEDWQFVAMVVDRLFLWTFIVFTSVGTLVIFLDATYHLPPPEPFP
# T2 sequence (P02716 25-520): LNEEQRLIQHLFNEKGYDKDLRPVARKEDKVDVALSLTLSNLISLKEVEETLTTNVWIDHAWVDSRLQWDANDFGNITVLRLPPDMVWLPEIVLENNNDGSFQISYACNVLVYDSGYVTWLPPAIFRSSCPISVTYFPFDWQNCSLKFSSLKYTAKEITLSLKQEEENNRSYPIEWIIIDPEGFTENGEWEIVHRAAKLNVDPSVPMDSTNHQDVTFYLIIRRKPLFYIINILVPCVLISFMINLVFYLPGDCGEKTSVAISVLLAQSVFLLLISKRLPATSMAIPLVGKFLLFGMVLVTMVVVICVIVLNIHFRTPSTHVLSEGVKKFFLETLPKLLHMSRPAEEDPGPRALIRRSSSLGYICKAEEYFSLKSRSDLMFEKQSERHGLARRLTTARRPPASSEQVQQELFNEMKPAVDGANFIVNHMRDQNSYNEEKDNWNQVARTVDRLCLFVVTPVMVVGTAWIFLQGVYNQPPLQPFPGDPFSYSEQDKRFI
# T2 sequence (P20782 21-493): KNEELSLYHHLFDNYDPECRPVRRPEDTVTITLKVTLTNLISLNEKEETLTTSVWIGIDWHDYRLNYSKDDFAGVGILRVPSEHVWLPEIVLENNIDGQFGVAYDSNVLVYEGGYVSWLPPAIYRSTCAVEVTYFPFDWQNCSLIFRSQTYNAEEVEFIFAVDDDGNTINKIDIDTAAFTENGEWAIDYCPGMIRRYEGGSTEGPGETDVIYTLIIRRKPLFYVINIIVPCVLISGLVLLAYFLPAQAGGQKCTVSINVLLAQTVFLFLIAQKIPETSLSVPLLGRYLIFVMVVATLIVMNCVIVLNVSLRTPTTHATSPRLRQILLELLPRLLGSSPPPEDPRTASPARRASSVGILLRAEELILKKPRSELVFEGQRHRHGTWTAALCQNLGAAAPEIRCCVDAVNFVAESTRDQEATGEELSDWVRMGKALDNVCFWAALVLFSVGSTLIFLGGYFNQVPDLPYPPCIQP
# presynaptic omega-agatoxin IVA-sensitive (P/Q-type) Ca^2+ channel, sequence (P54282 whole entry): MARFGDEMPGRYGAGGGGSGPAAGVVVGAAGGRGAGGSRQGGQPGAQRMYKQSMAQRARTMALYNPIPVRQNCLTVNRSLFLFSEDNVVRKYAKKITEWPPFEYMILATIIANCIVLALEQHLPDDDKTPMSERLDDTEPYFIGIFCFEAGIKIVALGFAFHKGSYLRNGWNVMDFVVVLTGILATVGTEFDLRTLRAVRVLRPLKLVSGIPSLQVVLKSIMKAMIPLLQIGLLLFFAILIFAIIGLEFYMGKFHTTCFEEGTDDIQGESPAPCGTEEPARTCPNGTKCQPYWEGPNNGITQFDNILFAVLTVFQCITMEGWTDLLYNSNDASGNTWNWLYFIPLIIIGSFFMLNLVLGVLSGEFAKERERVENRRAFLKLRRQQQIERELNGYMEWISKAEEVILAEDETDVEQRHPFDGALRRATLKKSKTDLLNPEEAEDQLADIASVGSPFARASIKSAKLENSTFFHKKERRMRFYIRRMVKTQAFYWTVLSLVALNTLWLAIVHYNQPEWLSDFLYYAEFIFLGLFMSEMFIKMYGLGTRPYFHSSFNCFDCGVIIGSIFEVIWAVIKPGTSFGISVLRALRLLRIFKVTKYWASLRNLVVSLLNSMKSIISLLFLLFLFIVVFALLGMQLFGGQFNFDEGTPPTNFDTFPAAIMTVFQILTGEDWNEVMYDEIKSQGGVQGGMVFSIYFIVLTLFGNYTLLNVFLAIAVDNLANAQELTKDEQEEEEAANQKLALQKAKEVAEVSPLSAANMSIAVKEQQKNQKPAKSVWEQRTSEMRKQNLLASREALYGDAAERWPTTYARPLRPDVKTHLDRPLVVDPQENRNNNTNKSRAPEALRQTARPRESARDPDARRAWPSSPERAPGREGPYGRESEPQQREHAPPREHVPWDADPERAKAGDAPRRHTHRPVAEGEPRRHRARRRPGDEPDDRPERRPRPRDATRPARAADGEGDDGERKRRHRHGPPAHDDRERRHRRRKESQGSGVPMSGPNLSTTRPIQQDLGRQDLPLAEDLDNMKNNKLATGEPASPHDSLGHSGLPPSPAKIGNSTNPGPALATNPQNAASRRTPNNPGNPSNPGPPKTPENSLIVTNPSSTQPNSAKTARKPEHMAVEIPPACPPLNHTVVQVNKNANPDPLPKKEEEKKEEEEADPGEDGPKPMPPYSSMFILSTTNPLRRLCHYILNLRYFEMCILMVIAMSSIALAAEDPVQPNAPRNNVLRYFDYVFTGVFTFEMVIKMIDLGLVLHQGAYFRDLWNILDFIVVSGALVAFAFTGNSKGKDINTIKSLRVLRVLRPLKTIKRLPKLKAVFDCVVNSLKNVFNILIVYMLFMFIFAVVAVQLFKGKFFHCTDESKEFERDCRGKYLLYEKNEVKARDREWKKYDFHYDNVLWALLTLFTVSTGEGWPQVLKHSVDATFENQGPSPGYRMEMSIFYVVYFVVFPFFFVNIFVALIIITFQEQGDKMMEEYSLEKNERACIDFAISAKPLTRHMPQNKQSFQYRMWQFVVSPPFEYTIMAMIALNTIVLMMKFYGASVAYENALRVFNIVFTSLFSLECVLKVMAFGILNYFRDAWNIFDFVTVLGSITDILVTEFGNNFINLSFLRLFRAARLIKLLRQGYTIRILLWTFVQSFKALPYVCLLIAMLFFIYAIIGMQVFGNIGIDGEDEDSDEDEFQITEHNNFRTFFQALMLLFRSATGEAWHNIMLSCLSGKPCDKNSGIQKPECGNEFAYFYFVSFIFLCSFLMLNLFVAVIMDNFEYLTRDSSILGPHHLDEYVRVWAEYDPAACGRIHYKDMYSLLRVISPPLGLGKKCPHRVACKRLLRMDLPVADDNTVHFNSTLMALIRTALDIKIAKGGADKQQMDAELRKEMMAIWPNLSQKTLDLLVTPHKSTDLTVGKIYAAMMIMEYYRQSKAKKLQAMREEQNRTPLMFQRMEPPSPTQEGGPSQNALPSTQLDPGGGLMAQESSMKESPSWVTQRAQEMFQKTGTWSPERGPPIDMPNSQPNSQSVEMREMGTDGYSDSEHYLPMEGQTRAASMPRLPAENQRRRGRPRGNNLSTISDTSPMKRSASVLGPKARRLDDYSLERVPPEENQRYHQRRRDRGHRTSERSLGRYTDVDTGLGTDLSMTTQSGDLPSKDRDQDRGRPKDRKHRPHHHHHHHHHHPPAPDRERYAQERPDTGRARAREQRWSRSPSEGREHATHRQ
smiles,measurement,setting,value
C[C@@H]1CC[C@H]2[C@@H](C)C(=O)O[C@@H]3O[C@@]4(C)CC[C@@H]1[C@]32OO4 [Artemisinin],LD50,[1],4228 mg/kg
CC1=CCC[C@]2(C)CC[C@@H](C(C)(C)O)C[C@@H]12 [α-eudesmol],inhibition of P/Q-type Ca2+ channel,[2],potently inhibits
same,inhibition of neurogenic inflammation,neurogenic inflammation,potently inhibits
same,post-ischemic brain injury,[3],attenuates post-ischemic brain injury
CC1(C)[C@H]2C(=COc3cc(O)ccc32)[C@]2(O)C(=O)C[C@]3(O)C[C@H]1[C@H]2[C@H]3O [Miroestrol],estrogenic activity,estrogenic activity,highest estrogenic activity among the known phytoestrogens
"CC1(C)C=Cc2c(ccc3c2OC[C@@H](c2ccc(O)cc2O)C3)O1 [glabridin, Glabridin]",superoxide (active oxygen) formation,[4],inhibited superoxide (active oxygen) formation
same,binding to estrogen receptor,human estrogen receptor,binding to the human estrogen receptor
same,cyclooxygenase activity,cyclooxygenase,inhibited the cyclooxygenase activity
same,pigmentation induced by UVB radiation,"[5]; 0.5% solution, topical, backs of brownish guinea pigs",significantly reduced pigmentation
same,inflammation induced by UVB irradiation,"[5]; 0.5% solution, topical, guinea pig skin",decreased the inflammation
same,DOPA-positive melanocytes,"[5]; treated skin, epidermal histology",reduced in number
same,creatine kinase activity,creatine kinase activity,stimulating creatine kinase activity
same,"effect on growth of breast tumor cells, low concentrations","breast tumor cells; 10 nM-10 μM, estrogen receptor-dependent",growth-promoting effect
same,"effect on growth of breast tumor cells, high concentrations","breast tumor cells; >15 μM, estrogen receptor-independent",antiproliferative activity
CC1(C)[C@H]2C(=COc3cc(O)ccc32)[C@@H]2C(=O)C[C@]3(O)C[C@H]1[C@H]2[C@H]3O [Deoxymiroestrol],estrogenic activity,estrogenic activity,highest estrogenic activity among the known phytoestrogens
C=C1CCC[C@]2(C)CC[C@@H](C(C)(C)O)C[C@@H]12 [β-eudesmol],proliferation of porcine brain microvascular endothelial cells,[6],inhibited
same,desensitization of the nicotinic ACh receptor,[7],accelerated the desensitization
same,nicotinic ACh receptor channel block,[7]; mouse skeletal muscles,blocked the nicotinic ACh receptor channel in both the open and closed conformations
same,"inhibition of Na+,K+-ATPase activity","Na^+, K(+)-ATPase",most strongly among the various kinds of phosphatases examined
same,phosphorylation of ERK 1/2 induced by bFGF or vascular endothelial growth factor,[8],blocked the phosphorylation
same,angiogenesis in adjuvant-induced granuloma,angiogenesis,significantly inhibited angiogenesis
same,angiogenesis in subcutaneously implanted Matrigel plugs,angiogenesis,significantly inhibited angiogenesis
same,HUVEC migration stimulated by bFGF,[9],inhibited the HUVEC migration
same,tube formation by HUVEC in Matrigel,[9],inhibited
same,proliferation of HUVEC,[9]; 50-100 microM,inhibited
same,neurite extension,PC-12 cells; 100 and 150 μM,significantly induced neurite extension
same,[3H]thymidine incorporation,PC-12 cells; at the highest concentration (150 μM),suppression of [^3H]thymidine incorporation
CO[C@H]1O[C@@H]2O[C@@]3(C)CC[C@H]4[C@H](C)CC[C@@H]([C@H]1C)[C@@]24OO3 [artemether],toxicity in monkeys,[10],no toxicity
